Test results published in BindingDB's records for doi:10.1016/j.bmc.2004.09.055 (Crefsip, 2005).
pKi: −log10 of the molar value.

What follows are molecules tested against Aspartate--tRNA ligase (Escherichia coli (strain K12), UniProt P21889) (assay: Determination of the Inhibition Type and Constant (Ki)). Conditions: pH 7.5; 37 °C.
Procedure: The Km and Kappm for the amino acid substrate were first calculated from Lineweaver-Burk plots. The Ki values were calculated from the Kappm vs [I] plot. The Ki values for the inhibitors with respect for the amino acid substrates were determined by measuring the apparent Km for the amino acid in the presence of saturating concentrations of both ATP and tRNA, and of various fixed concentrations of the inhibitor.

Sequence of Aspartate--tRNA ligase (P21889 whole entry): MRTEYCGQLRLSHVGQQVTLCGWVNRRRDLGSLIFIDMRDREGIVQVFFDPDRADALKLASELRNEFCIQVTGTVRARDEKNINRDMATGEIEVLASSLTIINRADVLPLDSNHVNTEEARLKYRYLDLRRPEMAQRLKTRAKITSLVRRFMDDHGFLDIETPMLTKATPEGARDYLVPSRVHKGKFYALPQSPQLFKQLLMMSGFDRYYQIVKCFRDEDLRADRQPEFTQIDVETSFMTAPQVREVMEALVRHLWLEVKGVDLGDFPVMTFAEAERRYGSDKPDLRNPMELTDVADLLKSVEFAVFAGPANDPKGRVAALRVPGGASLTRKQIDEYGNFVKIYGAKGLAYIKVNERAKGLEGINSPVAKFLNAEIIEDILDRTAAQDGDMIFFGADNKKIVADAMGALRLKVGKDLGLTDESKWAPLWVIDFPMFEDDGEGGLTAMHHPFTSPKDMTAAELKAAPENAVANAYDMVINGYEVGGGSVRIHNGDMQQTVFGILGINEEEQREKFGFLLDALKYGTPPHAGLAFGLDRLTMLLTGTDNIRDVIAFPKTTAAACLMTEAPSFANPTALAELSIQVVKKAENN

Point of comparison: Nc1ncnc2c1ncn2[C@@H]1O[C@H](COP(=O)(O)CC(=O)C(N)CC(=O)O)[C@@H](O)[C@H]1O (stereo partly drawn) [3-amino-5-({[(2R,3S,4R,5R)-5-(6-amino-9H-purin-9-yl)-3,4-dihydroxyoxolan-2-yl]methoxy}(hydroxy)phosphoryl)-4-oxopentanoic acid], pKi 6.91. Against it:
- Nc1ncnc2c1ncn2[C@@H]1O[C@H](COS(=O)(=O)NC(=O)C(N)CC(=O)O)[C@@H](O)[C@H]1O (stereo partly drawn) [3-amino-4-[({[(2R,3S,4R,5R)-5-(6-amino-9H-purin-9-yl)-3,4-dihydroxyoxolan-2-yl]methoxy}sulfonyl)amino]-4-oxobutanoic acid] — 0.91 log units higher, 7.82
- Nc1ncnc2c1ncn2[C@@H]1O[C@H](COP(=O)(O)OC[C@@H](N)CC(=O)O)[C@@H](O)[C@H]1O [(3S)-3-amino-4-[({[(2R,3S,4R,5R)-5-(6-amino-9H-purin-9-yl)-3,4-dihydroxyoxolan-2-yl]methoxy}(hydroxy)phosphoryl)oxy]butanoic acid] — 2.56 log units lower, 4.35
